Experiment [1] has as its system Demodex. Kind of experiment: Clinical treatment of Demodex blepharitis with topical 5-FU 1%. The experiment is classed as in vivo, human. On the procedure: The diagnosis of ocular demodicosis was based on clinical examination and confirmed by lash sampling and identification of microscopic mites. Lashes with cylindrical dandruff (CD), (scales that form clear cuffs collaring the lash root) were specifically selected for epilation. External slit lamp photos of both eyes of each individual were taken prior to and after initiation of 5-FU treatment. […] Patients were treated with 5-FU in a cyclical fashion (one week of topical 5-FU 1% application 4 times per day in the affected eye(s) followed by a 3-week holiday comprised one cycle).

In experiment [2] the test system is Demodex. Kind of experiment: Ex vivo treatment of Demodex on epilated lashes, kill time. To be noted: lashes immersed in 1-2 drops, time to cessation of all movement for minimum 60 seconds, examined every four hours. On the procedure:
Epilated lashes from an individual with confirmed Demodex infection were mounted onto six slides and covered with a coverslip. The lashes were then immersed in 1-2 drops of treatment solution (50 mg/mL 5-FU, 5 mg/mL 5-FU, or balanced salt solution as a control (2 slides each)). The slides were examined under a microscope (at magnifications ranging from 20-40×) every four hours. The kill time was defined as the elapsed time between the addition of test solution and all cessation of movement of the body, legs, mouth and pedipalps for a minimum of 60 seconds. The kill time for Demodex-infested lashes immersed in 5 mg/mL of 5-FU, 50 mg/mL of 5-FU, and control were 32 hours, 44 hours, and 72 hours, respectively.

For experiment [3], the system named is Demodex. Kind of experiment: Clinical treatment of Demodex infestation with topical mitomycin C. Format: in vivo, human. Particulars: patient with conjunctival melanoma and heavy Demodex infestation, after 2 cycles.

For the compound `O=c1[nH]cc(F)c(=O)[nH]1` [5-FU, 5-fluorouracil], the “CDs (cylindrical dandruff) and inflammation” value in experiment [1] (one individual with bilateral 5-FU treatment, both eyes compared to pre-treatment) is “reduction in CDs and inflammation”. Also, the “collarettes and lid inflammation by clinical examination” value in experiment [1] (topical 5-FU 1% 4 times per day one week, 3-week holiday per cycle, at least 2 cycles, treated eyes compared to untreated eye) was “reduction in collarettes and lid inflammation”. For the same compound, the kill time in experiment [2] (5 mg/mL 5-FU) is 32 h; in experiment [2] (50 mg/mL 5-FU), 44 h.

Consider `CO[C@@]12[C@H](COC(N)=O)C3=C(C(=O)C(C)=C(N)C3=O)N1C[C@@H]1N[C@@H]12` [mitomycin C], for which the lash collarettes entry in experiment [3] is “dramatic reduction in lash collarettes”.

The values above are taken from US20240238292A1, “TREATMENT OF INFECTIONS IN AND AROUND THE EYE” (UNIVERSITY OF MIAMI, priority 2021, published 2024).
